Reference: patent publication US11046697B2, “Compounds and compositions useful for treating disorders related to NTRK” (BLUEPRINT MEDICINES CORPORATION, priority 2015, dated 2021)
Where two headings read alike, the source gives them in different places.

Experiments:
[1] = tested on: KM12 Cliff (G595R) cell line; assay: NTRK G595R mutant cellular assay (CellTiter-Glo growth inhibition); format: cell-based; conditions: for IC50: 72 hr, CellTiter-Glo
Protocol: (§1) NTRK Wild Type and G595R Mutant Cellular Assays Protocol
(§2) KM12 wild type colon carcinoma cell line harboring the TPM3-NTRK1 fusion protein was obtained from the National Cancer Institute (NCI). This line has been previously shown to be dependent upon the NTRK activity derived from the NTRK fusion protein for growth and survival. […] Cells were first plated in 384-well plates at 1000 cells/well in complete media (10% FBS and 1% pen/strep) and incubated overnight at 37° C. Cells were then dosed with test articles at varying concentrations using the Bravo liquid handling system. […] Each compound was run in duplicate per plate. […] 72 hr after dosing, assay plates were developed using CellTiter-Glo (Promega) and resultant luminescence was read on the Envision plate reader. IC50 determinations were calculated using a 4-parameter curve fitting algorithm

[2] = molecular target: T1, wild type NTRK1 enzyme (Homo sapiens, UniProt P04629); assay: NTRK1 Wild Type Assay at 1 mM ATP; format: biochemical; conditions: 1 mM ATP; read-out: Enz NTRK1 IC50
T1 construct: purchased BPS Bioscience 40280
Protocol: NTRK1 Wild Type Assay at 1 mM ATP
The reaction was stopped by the addition of 70 μL of Stop buffer (100 mM HEPES pH 7.5, 0.015% Brij 35, 35 mM EDTA and 0.2% of Coating Reagent 3 (Caliper Lifesciences)). The plate was then read on a Caliper EZReader 2 (protocol settings: −1.7 psi, upstream voltage −500, downstream voltage −3000, post sample sip 35s).

[3] = tested on: KM12 wild type colon carcinoma cell line harboring the TPM3-NTRK1 fusion protein; assay: NTRK wild type cellular assay (CellTiter-Glo growth inhibition); format: cell-based; conditions: for IC50: 72 hr, CellTiter-Glo, read-out: KM12 (WT) IC50
Protocol: as §1, §2

T1 sequence (P04629 440-796 limits assumed): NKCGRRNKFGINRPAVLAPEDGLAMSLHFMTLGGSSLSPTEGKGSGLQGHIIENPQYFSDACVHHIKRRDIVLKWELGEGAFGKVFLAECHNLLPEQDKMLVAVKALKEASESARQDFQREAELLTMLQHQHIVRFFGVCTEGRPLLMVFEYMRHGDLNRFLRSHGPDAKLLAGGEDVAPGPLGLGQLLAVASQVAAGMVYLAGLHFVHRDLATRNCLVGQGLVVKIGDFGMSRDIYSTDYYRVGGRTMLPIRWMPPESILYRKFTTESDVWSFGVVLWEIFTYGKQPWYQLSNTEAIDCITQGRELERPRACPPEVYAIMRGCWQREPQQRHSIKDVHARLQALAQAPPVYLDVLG

| SMILES | IC50 ([1]; Homo sapiens, KM12, 72 h) | IC50 [2] | IC50 ([3]; Homo sapiens, KM12, 72 h) | IC50 [1] | IC50 [3] | GI50 ([1]; Homo sapiens, KM12, G595R mutant NTRK fusion cells) | GI50 ([3]; Homo sapiens, KM12, wild-type NTRK fusion cells, read-out: NTRK wt Cellular GI50) |
| --- | --- | --- | --- | --- | --- | --- | --- |
| O=C(c1n[nH]c2ncnc(N[C@@H]3CCOC[C@H]3O)c12)N1C[C@@H](F)C[C@@H]1c1cc(Cl)ccc1F [Compound 200] | 10 to 100 nM | < 10 nM | 10 to 100 nM | – | – | – | – |
| O=C(c1n[nH]c2ncnc(NC3CC(F)CC3O)c12)N1CC(F)CC1c1cc(F)cnc1Cl (stereo not shown) [Compound 207] | – | 10 to 100 nM | – | 10 to 100 nM | 10 to 100 nM | – | – |
| O=C(c1n[nH]c2ncnc(N[C@@H]3CC[C@@H](O)[C@H]3O)c12)N1C[C@@H](F)C[C@@H]1c1cc(F)ccc1OC(F)F [Compound 237] | 10 to 100 nM | < 10 nM | 10 to 100 nM | – | – | – | – |
| O=C(c1n[nH]c2ncnc(N[C@@H]3COCC[C@H]3O)c12)N1C[C@@H](F)C[C@@H]1c1cncc(F)c1 [Compound 74] | 10 to 100 nM | < 10 nM | 10 to 100 nM | – | – | – | – |
| O=C(NCc1cc(F)ccc1OC(F)(F)F)c1n[nH]c2ncnc(N[C@@H]3CC[C@@H](O)[C@H]3O)c12 [Compound 101] | 100 to 1000 nM | 100 to 1000 nM | 100 to 1000 nM | – | – | – | – |
| Cc1ccc(F)cc1CNC(=O)c1n[nH]c2ncnc(N[C@@H]3CC[C@@H](O)[C@H]3O)c12 [Compound 2] | 100 to 1000 nM | 100 to 1000 nM | 100 to 1000 nM | – | – | – | – |
| N#CC1CC(O)C(Nc2ncnc3[nH]nc(C(=O)N4CC(F)CC4c4cc(F)ccc4F)c23)C1 (stereo not shown) [Compound 184] | – | < 10 nM | – | < 10 nM | < 10 nM | – | – |
| O=C(c1n[nH]c2ncnc(NC3CCOCC3O)c12)N1CC(F)CC1c1cc(F)ccc1OC(F)(F)F (stereo not shown) [Compound 241] | – | < 10 nM | – | < 10 nM | < 10 nM | – | – |
| O=C(c1n[nH]c2ncnc(N[C@@H]3CCC[C@@H](O)[C@H]3O)c12)N1C[C@@H](F)C[C@@H]1c1cc(F)ccc1F [Compound 106] | < 10 nM | < 10 nM | < 10 nM | – | – | – | – |
| O=C(c1n[nH]c2ncnc(N[C@@H]3CC[C@@H](O)[C@H]3O)c12)N1C[C@@H](F)C[C@@H]1c1cc(F)cc(F)c1F [Compound 206] | – | < 10 nM | – | < 10 nM | < 10 nM | – | – |
| [2H]C([2H])([2H])N(Cc1cc(F)ccc1F)C(=O)c1n[nH]c2ncnc(N[C@@H]3COCC[C@H]3O)c12 [Compound 39] | 10 to 100 nM | < 10 nM | 10 to 100 nM | – | – | – | – |
| CN(Cc1cccc(F)c1)C(=O)c1n[nH]c2ncnc(N[C@@H]3CC[C@@H](O)[C@H]3O)c12 [Compound 132] | 100 to 1000 nM | 10 to 100 nM | 10 to 100 nM | – | – | – | – |
| CN(Cc1cc(F)ccc1F)C(=O)c1n[nH]c2ncnc(NC3CCC(O)C3O)c12 (stereo not shown) [Compound 28] | – | < 10 nM | – | 10 to 100 nM | 10 to 100 nM | – | – |
| O=C(NCc1cc(F)ccc1F)c1n[nH]c2ncnc(NC3CC(O)CC3O)c12 (stereo not shown) [Compound 13] | – | 10 to 100 nM | – | 100 to 1000 nM | 10 to 100 nM | – | – |
| O=C(NCc1cc(F)cc(F)c1F)c1n[nH]c2ncnc(N[C@@H]3COCC[C@H]3O)c12 [Compound 40] | – | 10 to 100 nM | – | 100 to 1000 nM | 100 to 1000 nM | – | – |
| COc1c(F)cc(F)cc1[C@H]1C[C@H](F)CN1C(=O)c1n[nH]c2ncnc(N[C@H]3[C@H](O)[C@H](O)[C@@H]4C[C@@H]43)c12 [Compound 233] | – | < 10 nM | – | < 10 nM | < 10 nM | – | – |
| O=C(c1n[nH]c2ncnc(N[C@@H]3CC[C@@H](O)[C@H]3O)c12)N1CC(F)(F)C[C@@H]1c1cc(F)cc(F)c1 [Compound 108] | 100 to 1000 nM | 10 to 100 nM | 100 to 1000 nM | – | – | – | – |
| N#Cc1cc(F)cc(C2CC(F)CN2C(=O)c2n[nH]c3ncnc(NC4COCCC4O)c23)c1 (stereo not shown) [Compound 182] | – | < 10 nM | – | 10 to 100 nM | < 10 nM | – | – |
| O=C(NCc1cc(F)cc(F)c1F)c1n[nH]c2ncnc(N[C@@H]3CC[C@@H](O)[C@H]3O)c12 [Compound 41] | 100 to 1000 nM | 10 to 100 nM | 100 to 1000 nM | – | – | – | – |

| SMILES | IC50 ([1]; Homo sapiens, KM12, 72 h) | IC50 [2] | IC50 ([3]; Homo sapiens, KM12, 72 h) | IC50 [1] | IC50 [3] | GI50 ([1]; Homo sapiens, KM12, G595R mutant NTRK fusion cells) | GI50 ([3]; Homo sapiens, KM12, wild-type NTRK fusion cells, read-out: NTRK wt Cellular GI50) |
| --- | --- | --- | --- | --- | --- | --- | --- |
| O=C(c1n[nH]c2ncnc(NC3CC(F)CC3O)c12)N1CC(F)CC1c1cc(F)cc(F)c1 (stereo not shown) [Compound 178] | – | < 10 nM | – | 10 to 100 nM | 10 to 100 nM | – | – |
| N#C[C@H]1C[C@H](c2cc(F)ccc2F)N(C(=O)c2n[nH]c3ncnc(N[C@@H]4COCC[C@H]4O)c23)C1 [Compound 100] | 100 to 1000 nM | 10 to 100 nM | 10 to 100 nM | – | – | – | – |
| O=C(NCc1cc(F)ccc1F)c1n[nH]c2ncnc(NC3CC(F)(F)CC3O)c12 (stereo not shown) [Compound 42] | – | 100 to 1000 nM | – | > 1000 nM | > 1000 nM | – | – |
| O=C(c1n[nH]c2ncnc(N[C@@H]3C=C[C@@H](O)[C@H]3O)c12)N1C[C@@H](F)C[C@@H]1c1cc(F)cc(F)c1 [Compound 171] | – | 10 to 100 nM | – | 10 to 100 nM | 10 to 100 nM | – | – |
| CN(Cc1cccc(F)c1F)C(=O)c1n[nH]c2ncnc(N[C@@H]3CC[C@@H](O)[C@H]3O)c12 [Compound 139] | – | 10 to 100 nM | – | 10 to 100 nM | 10 to 100 nM | – | – |
| CN(Cc1ccccc1)C(=O)c1n[nH]c2ncnc(N[C@@H]3CC[C@@H](O)[C@H]3O)c12 [Compound 131] | – | 100 to 1000 nM | – | 100 to 1000 nM | 100 to 1000 nM | – | – |
| O=C(NCc1cc(F)ccc1F)c1n[nH]c2ncnc(N[C@@H]3C[C@@H](F)C[C@H]3O)c12 (relative stereo) [Compound 17] | 100 to 1000 nM | 10 to 100 nM | 10 to 100 nM | – | – | – | – |
| CN(Cc1cc(F)cc(Cl)c1F)C(=O)c1n[nH]c2ncnc(N[C@@H]3CC[C@@H](O)[C@H]3O)c12 [Compound 120] | 10 to 100 nM | 10 to 100 nM | 10 to 100 nM | – | – | – | – |
| N#C[C@H]1C[C@H](c2cc(F)ccc2F)N(C(=O)c2n[nH]c3ncnc(N[C@@H]4CCC[C@H]4O)c23)C1 [Compound 79] | 10 to 100 nM | < 10 nM | < 10 nM | – | – | – | – |
| O=C(NCc1cc(F)ccc1F)c1n[nH]c2ncnc(N[C@@H]3C[C@H]4C[C@H]4[C@H]3O)c12 [Compound 4] | > 1000 nM | 100 to 1000 nM | > 1000 nM | – | – | – | – |
| O=C(c1n[nH]c2ncnc(NC3CCOCC3O)c12)N1CC(F)CC1c1cc(F)cc(F)c1F (stereo not shown) [Compound 205] | – | < 10 nM | – | < 10 nM | < 10 nM | – | – |
| N#CC1CC(O)C(Nc2ncnc3[nH]nc(C(=O)N4CC(F)CC4c4cc(F)cc(F)c4)c23)C1 (stereo not shown) [Compound 185] | – | < 10 nM | – | < 10 nM | < 10 nM | – | – |
| O=C(c1n[nH]c2ncnc(N[C@H]3[C@H](O)[C@H](O)[C@@H]4C[C@@H]43)c12)N1C[C@@H](F)C[C@@H]1c1cc(F)ccc1F [Compound 104] | < 10 nM | < 10 nM | < 10 nM | – | – | – | – |
| O=C(c1n[nH]c2ncnc(N[C@@H]3CC[C@@H](O)[C@H]3O)c12)N1C[C@@H](F)C[C@@H]1c1cc(Cl)ccc1F [Compound 201] | – | < 10 nM | – | < 10 nM | < 10 nM | – | – |
| O=C(c1n[nH]c2ncnc(NC3COCC(O)C3O)c12)N1CC(F)CC1c1cc(F)cc(Cl)c1 (stereo not shown) [Compound 223] | – | < 10 nM | – | 10 to 100 nM | 10 to 100 nM | – | – |
| CN(Cc1cccnc1Cl)C(=O)c1n[nH]c2ncnc(N[C@@H]3CC[C@@H](O)[C@H]3O)c12 [Compound 138] | – | 100 to 1000 nM | – | 100 to 1000 nM | 100 to 1000 nM | – | – |
| O=C(c1n[nH]c2ncnc(NC3CCOCC3O)c12)N1CC(F)CC1c1cc(F)ccc1OC(F)F (stereo not shown) [Compound 238] | – | – | – | 10 to 100 nM | 10 to 100 nM | – | – |
| C[C@@H](Oc1cc(-c2cnn(C3CCNCC3)c2)cnc1N)c1c(Cl)ccc(F)c1Cl [Crizotinib, crizotinib, reference compound] | – | – | – | – | – | 9000 nM | 87 nM |
